The text below walks through data of patent publication US20250099517A1, “Use of Lactobacillus reuteri Y7 strain for prevention or treatment of ocular diseases” (Taipei Medical University, priority 2023, published 2025).

The nature of data set [1]: food intakes of mice during the experiment. Format: in vivo, C57BL/6 mice. Particulars: for food intakes of mice: LU, lutein 6.15 mg/kg bw oral daily, blue light, Mean±S.E.M., n=6. The protocol: In the present invention, six-week-old male C57BL/6 mice were placed in a breeding cage in which the following feeding conditions were kept: temperature, 22±2° C., humidity, 55±5%, and the light-dark cycle of 12-hour light and 12-hour dark. The mice were fed with fodders at the adaptive phase for one week; general solid fodders for test animals were administered to mice of the control group and mice during the adaptive phase. The initial day was defined as Day 0 when the adaptive phase for the mice was over. From the next week, the mice were interfered with samples under test and exposed to blue light. During the experiments, the mice were monitored for weights as well as water intakes and checked for any physiological change. The data for experiments through electroretinography (ERG), fndus photography (FP), fundus fluorescein angiograph (FFA), spectral-domain optical coherence tomography (SD-OCT) and intraocular pressure (IOP) were collected at Day 0, Day 21 and Day 35, as shown in FIG. 1 for the experimental process. The C57BL/6 mice, which weighed between 23 and 25 g, were divided into seven groups randomly. In each group, the six mice induced by blue light successfully were incorporated in experiments. The samples dissolved in deuterium-depleted water (DDW) were fed to mice through oral tubes once a day. The groups were named and introduced as follows: • (1) Solvent not classified group (NC): The mice were fed with 0.2 ml deuterium-depleted water (DDW) through tubes; • (2) Negative control group (Blue light (BL)): The mice were fed with 0.2 ml deuterium-depleted water (DDW) through tubes and exposed to blue light; • (3) Low-dosage Y7 probiotics group […]): The mice were fed with low-dosage Y7 probiotics (probiotic counts of 1.0×10^8 CFU/ml dissolved in 0.2 ml DDW per day) and exposed to blue light; • (4) High-dosage Y7 probiotics group […]): The mice were fed with high-dosage Y7 probiotics (probiotic counts of 1.0×10^9 CFU/ml dissolved in 0.2 ml DDW per day) and exposed to blue light; • (5) Positive control group (lutein (LU)): The mice were fed with lutein and exposed to blue light. The recommended human dosage of lutein is 30 mg. The mouse cage (48×25×20 cm) placed inside a stainless ventilated box was equipped with blue light boards as blue light sources around and above. In the experiment of animals exposed to blue light, six-week-old mice staying in the mouse cage were fed with drinking water as well as fodders and exposed to 400 Lux blue light illumination under the light-dark cycle of 12-hour light and 12-hour dark. The experiment was aimed at causing mice' late dry macular disease induced by chronic light injuries for simulating a human being's macular disease after long-term exposure to short-wavelength blue light from 3C products in daily life. All data written as the form of mean±standard error of the mean (S.E.M.) were used in the statistical analysis through the one-way ANOVA and the Newman-Keuls test; p<0.05 denoted statistical difference. In the experiment, the software for the statistical analysis was Graph pad Prism (v9.2.0). The data such as food intake, water intake, body weight, organ weight and other clinical examination data were analyzed with the one-way ANOVA.

The subject of data set [2] is blue light-induced retinal atrophy. As to the kind of experiment: SD-OCT quantitative analysis of retina layers, blue light-induced macular disease model. The data set is classed as in vivo, C57BL/6 mice. Particulars: for RPE layer thickness compared with the BL group / ONL (outer nuclear layer) thickness compared with the BL group: Day 35, p<0.05. As for the experimental part: The C57BL/6 mice, which weighed between 23 and 25 g, were divided into seven groups randomly. In each group, the six mice induced by blue light successfully were incorporated in experiments. The samples dissolved in deuterium-depleted water (DDW) were fed to mice through oral tubes once a day. The groups were named and introduced as follows: • (1) Solvent not classified group (NC): The mice were fed with 0.2 ml deuterium-depleted water (DDW) through tubes; • (2) Negative control group (Blue light (BL)): The mice were fed with 0.2 ml deuterium-depleted water (DDW) through tubes and exposed to blue light; • (3) Low-dosage Y7 probiotics group […]): The mice were fed with low-dosage Y7 probiotics (probiotic counts of 1.0×10^8 CFU/ml dissolved in 0.2 ml DDW per day) and exposed to blue light; • (4) High-dosage Y7 probiotics group […]): The mice were fed with high-dosage Y7 probiotics (probiotic counts of 1.0×10^9 CFU/ml dissolved in 0.2 ml DDW per day) and exposed to blue light; • (5) Positive control group (lutein (LU)): The mice were fed with lutein and exposed to blue light. The recommended human dosage of lutein is 30 mg. The mouse cage (48×25×20 cm) placed inside a stainless ventilated box was equipped with blue light boards as blue light sources around and above. In the experiment of animals exposed to blue light, six-week-old mice staying in the mouse cage were fed with drinking water as well as fodders and exposed to 400 Lux blue light illumination under the light-dark cycle of 12-hour light and 12-hour dark. The experiment was aimed at causing mice' late dry macular disease induced by chronic light injuries for simulating a human being's macular disease after long-term exposure to short-wavelength blue light from 3C products in daily life. The OCT image system (Phoenix Research Laboratories, San Ramon, CA) used in the experiment is constructed based on the principle of spectral-domain optical coherence tomography. In the system, the computed tomography is divided into five layers, that is, Layer 1: the distance from the Ganglion cell layer (GY7L) to the outer plexiform layer (OPL); Layer 2: outer nuclear layer (ONL); Layer 3: the distance between the inner segment (IS) and the outer segment (OS); Layer 4: the distance from IS/OS to RPE; Layer 5: the total retinal thickness from the nerve fiber layer (NFL) to the lower edge of the RPE layer. The five layers were taken for the quantitative analysis by InSight XL (Phoenix Research Laboratories, San Ramon, CA). SD-OCT was used in checking lesions after exposure to blue light such as retinal atrophy and edema on a retina structure. According to the quantitative SD-OCT analysis, changes in all layers of a retina during the experiment were clearly inspected and no lesion like atrophy and edema was detected in any group before the experiment, as show in FIG. 5. Atrophy at the outer nuclear layer (ONL) of mice in the BL group was observed on Day 35, as shown by the arrow in FIG. 3a.

As to `CC1=C[C@H](O)CC(C)(C)[C@H]1/C=C/C(C)=C/C=C/C(C)=C/C=C/C=C(C)/C=C/C=C(C)/C=C/C1=C(C)C[C@@H](O)CC1(C)C` [lutein, reference compound], the “food intakes of mice” value is on record as 5.71 ± 1.17 in data set [1] (Day7); 4.17 ± 1.15 in data set [1] (Day14); 5.04 ± 1.82 in data set [1] (Day21); 5.33 ± 2.17 in data set [1] (Day28); 4.43 ± 2.12 in data set [1] (Day35). In data set [2] (LU lutein group), the “RPE layer thickness compared with the BL group” value is “significantly thicker”. Besides, the “thickness of a retina after long-term exposure to blue light” value in data set [2] (lutein) is “effectively maintained”.
In the case of “Lactobacillus reuteri Y7 [Y7 probiotics]”, in data set [1] (mouse, in vivo), the “food intakes compared with the BL group” value is recorded as “significantly higher”. In addition, the “ONL (outer nuclear layer) thickness compared with the BL group” value in data set [2] (Y7H high-dosage group) and in data set [2] (Y7L low-dosage group) was “significant difference” in each case. Moreover, the “RPE layer thickness compared with the BL group” value in data set [2] (Y7H high-dosage group) and in data set [2] (Y7L low-dosage group) was “significantly thicker” in each case. In addition, the “thickness of a retina after long-term exposure to blue light” value in data set [2] (high-dosage Y7 probiotics) and in data set [2] (low-dosage Y7 probiotics) was “effectively maintained” in each case.
